Laboratory results taken from paper PMC5743427, “Inhibition of PIP4Kγ ameliorates the pathological effects of mutant huntingtin protein” (eLife, 2017).

What was measured:
PIP4K2C = target: T1, PIP4K2C (Homo sapiens, UniProt Q8TBX8); assay: KINOMEscan competition binding, single dose […]; conditions: 10 µM
T1 sequence (Q8TBX8 2-421): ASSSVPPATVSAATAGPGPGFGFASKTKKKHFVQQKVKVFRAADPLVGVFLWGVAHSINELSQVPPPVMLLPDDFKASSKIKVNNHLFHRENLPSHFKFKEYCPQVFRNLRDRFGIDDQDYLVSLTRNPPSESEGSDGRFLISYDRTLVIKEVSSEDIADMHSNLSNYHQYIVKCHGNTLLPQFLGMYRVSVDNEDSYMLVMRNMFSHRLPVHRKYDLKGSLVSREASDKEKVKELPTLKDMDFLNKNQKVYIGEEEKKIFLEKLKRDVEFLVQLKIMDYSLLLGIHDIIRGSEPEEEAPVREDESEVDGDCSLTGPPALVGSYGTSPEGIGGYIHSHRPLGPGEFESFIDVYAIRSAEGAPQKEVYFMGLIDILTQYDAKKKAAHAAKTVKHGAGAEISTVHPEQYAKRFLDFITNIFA

PIP4Kγ = target: T2, PIP4Kγ (Homo sapiens, UniProt Q8TBX8); assay: DiscoverX KINOMEscan competition binding Kd; also […] lipid kinase assay with purified full-length enzyme (IC50 […])
T2 construct: gene PIP4K2C; KINOMEscan construct for Kd; full length isolated PIP4Kγ for the enzyme assay
T2 sequence (Q8TBX8 2-421): T1 sequence (Q8TBX8 2-421)

PIP4Kalpha = target: T3, PIP4Kalpha (Homo sapiens, UniProt P48426); assay: […] lipid kinase assay (PI5P phosphorylation) with purified recombinant enzyme; weak inhibition; format: biochemical
T3 construct: gene PIP4K2A
T3 sequence (P48426 2-406): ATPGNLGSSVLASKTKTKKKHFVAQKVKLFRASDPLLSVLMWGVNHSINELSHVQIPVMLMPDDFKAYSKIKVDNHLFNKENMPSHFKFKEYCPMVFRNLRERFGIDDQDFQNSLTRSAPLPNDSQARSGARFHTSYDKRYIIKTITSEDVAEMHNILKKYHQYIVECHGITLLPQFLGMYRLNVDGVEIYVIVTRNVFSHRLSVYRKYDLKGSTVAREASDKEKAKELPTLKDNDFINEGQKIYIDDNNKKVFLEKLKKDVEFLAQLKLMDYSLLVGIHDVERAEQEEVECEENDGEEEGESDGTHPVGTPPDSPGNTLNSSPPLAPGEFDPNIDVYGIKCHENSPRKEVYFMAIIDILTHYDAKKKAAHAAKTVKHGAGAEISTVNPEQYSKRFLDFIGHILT

SMILES	ML168 (PIP4K2C)	Kd (PIP4Kγ)	IC50 (PIP4Kalpha)
Cn1nnnc1Sc1ncnc2scc(-c3ccccc3)c12 [ML168]	23		
Cn1nnnc1Sc1ncnc2scc(-c3cccc(S(C)(=O)=O)c3)c12 [NCT-504, 4-((1-methyl-1H-tetrazol-5-yl)thio)−5-(3-(methylsulfonyl)phenyl)thieno[2,3-d]pyrimidine]		0.354 µM	50 to 100 µM
